In ChEMBL document CHEMBL3885881, “DrugMatrix”:

Organism: Rattus norvegicus
Test: DrugMatrix - Regimen: Daily Repeat
Assay type: toxicity, organism-based, Sprague-Dawley
Design: regimen Daily Repeat, gender Male, age 6-8 weeks
Conditions: in vivo, po, route oral GAVAGE, vehicle 100 % WATER; for ABSOLUTE BASOPHIL / ABSOLUTE EOSINOPHIL / ABSOLUTE LYMPHOCYTE / ABSOLUTE MONOCYTE / ABSOLUTE SEGMENTED NEUTROPHIL / BASOPHIL / EOSINOPHIL / ERYTHROCYTE COUNT / HEMATOCRIT / HEMOGLOBIN / LEUKOCYTE COUNT / LYMPHOCYTE / MEAN CORPUSCULAR HEMOGLOBIN / MEAN CORPUSCULAR HEMOGLOBIN CONCENTRATION / MEAN CORPUSCULAR VOLUME / MONOCYTE / NEUTROPHIL / NUCLEATED RED BLOOD CELLS / PLATELET COUNT: tissue Blood; for ALANINE AMINOTRANSFERASE / ALBUMIN / ALKALINE PHOSPHATASE / ASPARTATE AMINOTRANSFERASE / BLOOD UREA NITROGEN / CARBON DIOXIDE / CHLORIDE / CHOLESTEROL / CREATINE PHOSPHOKINASE / CREATININE / GLUCOSE / LACTATE DEHYDROGENASE / LIPASE / PHOSPHORUS / POTASSIUM / SODIUM / TOTAL BILIRUBIN / TOTAL PROTEIN / URIC ACID: tissue Plasma
[1] = 0 mg/kg, 72 h, dose level Control, time 3 day
[2] = 0 mg/kg, 120 h, dose level Control, time 5 day
[3] = 60 mg/kg, 72 h, dose level Low, time 3 day

CC(C)C[C@H](NC(=O)[C@@H](O)[C@H](N)Cc1ccccc1)C(=O)O [UBENIMEX]
ABSOLUTE BASOPHIL [1]: 0 CELLS/uL
ABSOLUTE EOSINOPHIL [1]: 168.33 CELLS/uL
ABSOLUTE LYMPHOCYTE [1]: 13654.17 CELLS/uL
ABSOLUTE MONOCYTE [1]: 121 CELLS/uL
ABSOLUTE SEGMENTED NEUTROPHIL [1]: 1223.17 CELLS/uL
BASOPHIL [1]: 0%
EOSINOPHIL [1]: 1.17%
ERYTHROCYTE COUNT [1]: 5.7 x10E6/uL
HEMATOCRIT [1]: 35.33%
HEMOGLOBIN [1]: 13.97 G/DL
LEUKOCYTE COUNT [1]: 15.17 x10E3/uL
LYMPHOCYTE [1]: 89.83%
MEAN CORPUSCULAR HEMOGLOBIN [1]: 24.53 pg
MEAN CORPUSCULAR HEMOGLOBIN CONCENTRATION [1]: 39.53 G/DL
MEAN CORPUSCULAR VOLUME [1]: 62.05 fL
MONOCYTE [1]: 0.83%
NEUTROPHIL [1]: 8.17%
NUCLEATED RED BLOOD CELLS [1]: 0 /100WBC
PLATELET COUNT [1]: 1312.17 x10E3/uL
ALANINE AMINOTRANSFERASE [1]: 50.83 u/L
ALBUMIN [1]: 4.18 G/DL
ALKALINE PHOSPHATASE [1]: 334.17 u/L
ASPARTATE AMINOTRANSFERASE [1]: 82.17 u/L
BLOOD UREA NITROGEN [1]: 15.5 mg/dL
CARBON DIOXIDE [1]: 31.33 mmol/L
CHLORIDE [1]: 99.83 MEQ/L
CHOLESTEROL [1]: 76 mg/dL
CREATINE PHOSPHOKINASE [1]: 272.17 u/L
CREATININE [1]: 0.17 mg/dL
GLUCOSE [1]: 143 mg/dL
LACTATE DEHYDROGENASE [1]: 157.5 u/L
LIPASE [1]: 9.33 u/L
PHOSPHORUS [1]: 12.18 mg/dL
POTASSIUM [1]: 6.78 MEQ/L
SODIUM [1]: 143.9 MEQ/L
TOTAL BILIRUBIN [1]: 0.22 mg/dL
TOTAL PROTEIN [1]: 5.85 G/DL
URIC ACID [1]: 1.7 mg/dL
ABSOLUTE BASOPHIL [2]: 0 CELLS/uL
ABSOLUTE EOSINOPHIL [2]: 0 CELLS/uL
ABSOLUTE LYMPHOCYTE [2]: 13539.33 CELLS/uL
ABSOLUTE MONOCYTE [2]: 177.67 CELLS/uL
ABSOLUTE SEGMENTED NEUTROPHIL [2]: 2116.33 CELLS/uL
BASOPHIL [2]: 0%
EOSINOPHIL [2]: 0%
ERYTHROCYTE COUNT [2]: 5.78 x10E6/uL
HEMATOCRIT [2]: 36.13%
HEMOGLOBIN [2]: 14.1 G/DL
LEUKOCYTE COUNT [2]: 15.83 x10E3/uL
LYMPHOCYTE [2]: 85.83%
MEAN CORPUSCULAR HEMOGLOBIN [2]: 24.42 pg
MEAN CORPUSCULAR HEMOGLOBIN CONCENTRATION [2]: 39 G/DL
MEAN CORPUSCULAR VOLUME [2]: 62.55 fL
MONOCYTE [2]: 0.83%
NEUTROPHIL [2]: 13.33%
NUCLEATED RED BLOOD CELLS [2]: 0.17 /100WBC
PLATELET COUNT [2]: 1281.17 x10E3/uL
ALANINE AMINOTRANSFERASE [2]: 55.5 u/L
ALBUMIN [2]: 4.22 G/DL
ALKALINE PHOSPHATASE [2]: 345 u/L
ASPARTATE AMINOTRANSFERASE [2]: 92.5 u/L
BLOOD UREA NITROGEN [2]: 16.5 mg/dL
CARBON DIOXIDE [2]: 26.5 mmol/L
CHLORIDE [2]: 103.5 MEQ/L
CHOLESTEROL [2]: 78.5 mg/dL
CREATINE PHOSPHOKINASE [2]: 381.5 u/L
CREATININE [2]: 0.21 mg/dL
GLUCOSE [2]: 161.83 mg/dL
LACTATE DEHYDROGENASE [2]: 487.5 u/L
LIPASE [2]: 10.17 u/L
PHOSPHORUS [2]: 11.83 mg/dL
POTASSIUM [2]: 6.4 MEQ/L
SODIUM [2]: 146.95 MEQ/L
TOTAL BILIRUBIN [2]: 0.22 mg/dL
TOTAL PROTEIN [2]: 6.22 G/DL
URIC ACID [2]: 1.83 mg/dL
ABSOLUTE BASOPHIL [3]: 0 CELLS/uL
ABSOLUTE EOSINOPHIL [3]: 99.33 CELLS/uL
ABSOLUTE LYMPHOCYTE [3]: 13954.33 CELLS/uL
ABSOLUTE MONOCYTE [3]: 91 CELLS/uL
ABSOLUTE SEGMENTED NEUTROPHIL [3]: 1655.33 CELLS/uL
BASOPHIL [3]: 0%
EOSINOPHIL [3]: 0.67%
ERYTHROCYTE COUNT [3]: 5.56 x10E6/uL
HEMATOCRIT [3]: 33.13%
HEMOGLOBIN [3]: 12.97 G/DL
LEUKOCYTE COUNT [3]: 15.8 x10E3/uL
LYMPHOCYTE [3]: 88.33%
MEAN CORPUSCULAR HEMOGLOBIN [3]: 23.33 pg
MEAN CORPUSCULAR HEMOGLOBIN CONCENTRATION [3]: 39.17 G/DL
MEAN CORPUSCULAR VOLUME [3]: 59.53 fL
MONOCYTE [3]: 0.67%
NEUTROPHIL [3]: 10.33%
NUCLEATED RED BLOOD CELLS [3]: 0 /100WBC
PLATELET COUNT [3]: 1252.67 x10E3/uL
ALANINE AMINOTRANSFERASE [3]: 58 u/L
ALBUMIN [3]: 4.13 G/DL
ALKALINE PHOSPHATASE [3]: 310.67 u/L
ASPARTATE AMINOTRANSFERASE [3]: 96.67 u/L
BLOOD UREA NITROGEN [3]: 15.67 mg/dL
CARBON DIOXIDE [3]: 29.33 mmol/L
CHLORIDE [3]: 100 MEQ/L
CHOLESTEROL [3]: 80 mg/dL
CREATINE PHOSPHOKINASE [3]: 475.33 u/L
CREATININE [3]: 0.2 mg/dL
GLUCOSE [3]: 142 mg/dL
LACTATE DEHYDROGENASE [3]: 612.67 u/L
LIPASE [3]: 9.67 u/L
PHOSPHORUS [3]: 11.07 mg/dL
POTASSIUM [3]: 6.61 MEQ/L
SODIUM [3]: 143.5 MEQ/L
TOTAL BILIRUBIN [3]: 0.17 mg/dL
TOTAL PROTEIN [3]: 5.8 G/DL
URIC ACID [3]: 1.47 mg/dL
